Laboratory results taken from ChEMBL document CHEMBL1156740, “A bivalent ligand (KMN-21) antagonist for mu/kappa heterodimeric opioid receptors” (Bioorg Med Chem Lett, 2009).
Active and inactive are the calls of the source.

Key:
Assay type in all cases: functional, cell-based
[1] = target: Kappa-type opioid receptor (Homo sapiens) (UniProt P41145); experiment: Antagonistic activity at kappa opioid receptor expressed in HEK293 cells co-transfected with chimeric G-protein delta 6-Gqi4-myr assessed as inhibition of U69593-induced calcium release at 1 uM
[2] = target: Mu-type opioid receptor (Homo sapiens) (UniProt P35372); experiment: Antagonistic activity at mu opioid receptor expressed in HEK293 cells co-transfected with chimeric G-protein delta 6-Gqi4-myr assessed as inhibition of DAMGO-induced calcium release at 1 uM
[3] = target: T1, Opioid receptors; mu & kappa (Homo sapiens) (UniProt P41145+P35372); experiment: Antagonistic activity at mu/kappa opioid receptor expressed in HEK293 cells co-transfected with chimeric G-protein delta 6-Gqi4-myr assessed as inhibition of DAMGO-induced calcium release at 1 uM
[4] = target: T1, Opioid receptors; mu & kappa (Homo sapiens); experiment: Antagonistic activity at mu/kappa opioid receptor expressed in HEK293 cells co-transfected with chimeric G-protein delta 6-Gqi4-myr assessed as inhibition of U69593-induced calcium release at 1 uM

Measured: Activity

Sequence of Kappa-type opioid receptor (Homo sapiens) (P41145 whole entry): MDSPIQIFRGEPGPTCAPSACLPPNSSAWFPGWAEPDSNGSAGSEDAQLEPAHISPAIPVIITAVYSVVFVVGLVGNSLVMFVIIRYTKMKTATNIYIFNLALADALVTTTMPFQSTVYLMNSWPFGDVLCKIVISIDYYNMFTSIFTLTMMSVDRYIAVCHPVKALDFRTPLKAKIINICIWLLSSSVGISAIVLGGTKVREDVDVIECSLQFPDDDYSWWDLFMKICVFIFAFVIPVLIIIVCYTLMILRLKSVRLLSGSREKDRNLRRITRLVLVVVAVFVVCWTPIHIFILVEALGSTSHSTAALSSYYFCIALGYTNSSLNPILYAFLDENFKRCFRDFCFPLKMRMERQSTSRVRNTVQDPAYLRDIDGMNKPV
Sequence of Mu-type opioid receptor (Homo sapiens) (P35372 whole entry): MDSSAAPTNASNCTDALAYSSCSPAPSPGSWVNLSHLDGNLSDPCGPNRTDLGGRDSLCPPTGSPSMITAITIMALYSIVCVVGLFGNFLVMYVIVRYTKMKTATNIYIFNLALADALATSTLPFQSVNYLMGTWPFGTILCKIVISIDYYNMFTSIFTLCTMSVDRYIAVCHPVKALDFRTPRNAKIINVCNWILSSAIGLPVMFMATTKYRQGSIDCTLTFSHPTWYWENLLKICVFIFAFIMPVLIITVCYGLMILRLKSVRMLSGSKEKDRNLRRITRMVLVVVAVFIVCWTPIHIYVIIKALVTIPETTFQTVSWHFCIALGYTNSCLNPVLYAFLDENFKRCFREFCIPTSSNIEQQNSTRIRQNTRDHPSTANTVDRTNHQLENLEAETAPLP
T1 sequence (P35372 whole entry, looked up): as the sequence (P35372 whole entry) above
T1 sequence (P41145 whole entry, looked up): as the sequence (P41145 whole entry) above

N=C(NCCNC(=O)CNC(=O)CNC(=O)CCC(=O)NCC(=O)NCC(=O)N[C@H]1C[C@@H]2Oc3c(O)ccc4c3[C@@]23CCN(CC2CC2)[C@H](C4)[C@]3(O)C1)Nc1ccc2[nH]c3c(c2c1)C[C@@]1(O)[C@H]2Cc4ccc(O)c5c4[C@@]1(CCN2CC1CC1)[C@H]3O5
active: all assays above

N=C(NCCCCCNC(=O)CNC(=O)CNC(=O)CCC(=O)NCC(=O)NCC(=O)N[C@H]1C[C@@H]2Oc3c(O)ccc4c3[C@@]23CCN(CC2CC2)[C@H](C4)[C@]3(O)C1)Nc1ccc2[nH]c3c(c2c1)C[C@@]1(O)[C@H]2Cc4ccc(O)c5c4[C@@]1(CCN2CC1CC1)[C@H]3O5
active: all assays above

N=C(NCCCCNC(=O)CNC(=O)CNC(=O)CCC(=O)NCC(=O)NCC(=O)N[C@H]1C[C@@H]2Oc3c(O)ccc4c3[C@@]23CCN(CC2CC2)[C@H](C4)[C@]3(O)C1)Nc1ccc2[nH]c3c(c2c1)C[C@@]1(O)[C@H]2Cc4ccc(O)c5c4[C@@]1(CCN2CC1CC1)[C@H]3O5
active: all assays above

N=C(NCCCNC(=O)CNC(=O)CNC(=O)CCC(=O)NCC(=O)NCC(=O)N[C@H]1C[C@@H]2Oc3c(O)ccc4c3[C@@]23CCN(CC2CC2)[C@H](C4)[C@]3(O)C1)Nc1ccc2[nH]c3c(c2c1)C[C@@]1(O)[C@H]2Cc4ccc(O)c5c4[C@@]1(CCN2CC1CC1)[C@H]3O5
active: all assays above
